Measured values reported in patent US20160271155A1, “Vitamin Formulations” (NESTEC S.A., priority 2013, published 2016).

Experiments:
[1] = Particle size of B9:stevioside solutions; format: physicochemical; settings: Homogenization for 5 min and heat at 80° for 5 min; no unit in table (b98 speaks of nm)
Description: In certain instances, the stevioside: B9 complex comprises a nanoparticle, or a nanomicelle, with a characteristic size distribution of approximately 2 nm to about 4 nanometers. This size, along with their physical and chemical properties, is believed to be important regarding their bioavailability enhancement properties. Nanoparticle size distribution can be measured using Dynamic Light Scattering (DLS).

[2] = system: Caco-2 cell monolayer; assay: Absorption assessment in Caco-2 cell monolayer; format: in vitro ADME
Description: The Caco-2 cell monolayer model is the standard for predicting human oral absorption. The test samples included: B9:stevioside at 1:0; 1:4; 1:10 and 1:20.
Table 4 tabulates the permeability of methylfolate calcium (B9) in Caco-2 monolayer cell culture.

[3] = Concentration of B9 in water and solution appearance at B9:stevioside ratios (HPLC); settings: for Solution Appearance: 15 mg/mL B9 in water
Description: Vitamin B9 (5-methyl folate, MW 459.46) was formulated using stevioside to form a complex.
All water solutions were prepared to contain 15 mg/mL B9 and filtered before HPLC analysis.

[4] = Absorption assessment in a rat model (oral pharmacokinetics); format: in vivo, Sprague Dawley rat; settings: rats, oral gavage
Description: Each group (formulation) had 8 rats (n=8).
Vertical bars represent one standard error of the means (n=8).
The table contains various pharmacokinetic parameters in rats orally administered with various methylfolate Ca (B9) formulations. Shown as Average±SD (% over the 1:0 control formulation).

[5] = dose equivalent to 19 mg/70 kg person, n=8, Average±SD

- Particle Size MN [1]: 1,865
- Particle Size MV [1]: 1,917
- permeability in Caco-2 cell monolayer assay ([2]; Caco-2 monolayer): permeable
- Permeation enhancement (over 1:0) ([2]; Caco-2 monolayer, 76 μg/mL B9, 2 hr): 1.00
- Papp (A-B) ([2]; Caco-2 monolayer, 76 μg/mL B9, assay duration 2 hr): 5.89 ± 0.245 10^−6 · cm· s^−1
- predicted oral absorption ([2]; predicted from the Caco-2 value): 70-80%
- Caco-2 value (rounded) ([2]; text summary of Table 4, unit not given): 6
- Solution Appearance ([3]; Homogenization for 5 min and heat at 80° for 5 min): Suspension
- Concentration (mg/mL in water) ([3]; Homogenization for 5 min and heat at 80° for 5 min, prepared to contain 15 mg/mL B9, filtered before HPLC): 9.2 mg/mL
- Solution Appearance ([3]; No homogenization or heat): Suspension
- AUC0-∞, % over the 1:0 control formulation ([4]; 19 mg/70 kg person equivalent): (100) %
- AUC^0-12, % over the 1:0 control formulation ([4]; 19 mg/70 kg person equivalent): (100) %
- CL, % over the 1:0 control formulation ([4]; 19 mg/70 kg person equivalent): (100) %
- Cmax, % over the 1:0 control formulation ([4]; 19 mg/70 kg person equivalent): (100) %
- MRT0-∞, % over the 1:0 control formulation ([4]; 19 mg/70 kg person equivalent): (100) %
- T1/2, % over the 1:0 control formulation ([4]; 19 mg/70 kg person equivalent): (100) %
- Tmax, % over the 1:0 control formulation ([4]; 19 mg/70 kg person equivalent): (100) %
- Vss, % over the 1:0 control formulation ([4]; 19 mg/70 kg person equivalent): (100) %
- CL [4, 5]: 0.69 ± 0.06 mL/h kg^−1
- Cmax [4, 5]: 0.63 ± 0.04955 µg/mL
- MRT0-∞ [4, 5]: 12.41 ± 2.40 h
- T1/2 [4, 5]: 8.60 ± 1.92 h
- Tmax [4, 5]: 1.59 ± 0.36 h
- Vss [4, 5]: 0.0077 ± 0.00095 L/kg
Structure (SMILES): CN1c2c(nc(N)[nH]c2=O)NCC1CNc1ccc(C(=O)N[C@@H](CCC(=O)[O-])C(=O)O)cc1.CN1c2c(nc(N)[nH]c2=O)NCC1CNc1ccc(C(=O)N[C@@H](CCC(=O)[O-])C(=O)O)cc1.[Ca+2] (stereo partly drawn) [B9:ST 1:0]
